Results reported in ChEMBL document CHEMBL4431301, “The Medicinal Chemistry of Dengue Virus” (J Med Chem, 2016).
pEC50, pIC50, pKi: −log10 of the molar value. Where a SMILES comes first, the peptide text is derived from it.

Assays:
dengue virus type 2 [1] = assay: Antiviral activity against Dengue virus 2 infected in human A549 cells assessed as decrease in viral envelope protein production after 48 hrs by CFI assay; format: functional, organism-based; details: A549, 48 h
[2] = Selectivity index, ratio of CC50 for human A549 cells to EC50 for Dengue virus 2 infected in human A549 cells; format: toxicity, cell-based; details: read-out: Ratio CC50/EC50
Genome polyprotein [3] = target: T1, Genome polyprotein (dengue virus type 2, UniProt P29990); assay: Inhibition of Dengue virus 3 NS2B-NS3 protease expressed in Escherichia coli using Abz-RRRRSAG-nY-NH2 as substrate preincubated for 20 mins followed by addition of substrate measured after 60 mins by fluorescence assay; design: species or system dengue virus type 3
[4] = target: DEN4V NS2B-G4SG4NS3 serine protease (Dengue virus type 4, UniProt P09866); assay: Inhibition of Dengue virus 4 NS2B-NS3 protease expressed in Escherichia coli using Abz-RRRRSAG-nY-NH2 as substrate preincubated for 20 mins followed by addition of substrate measured after 60 mins by fluorescence assay
Genome polyprotein [5] = target: T1, Genome polyprotein; assay: Inhibition of Dengue virus 2 NS2B-NS3 protease expressed in Escherichia coli using Abz-RRRRSAG-nY-NH2 as substrate preincubated for 20 mins followed by addition of substrate measured after 60 mins by fluorescence assay
Genome polyprotein [6] = target: T1, Genome polyprotein; assay: Inhibition of Dengue virus 1 NS2B-NS3 protease expressed in Escherichia coli using Abz-RRRRSAG-nY-NH2 as substrate preincubated for 20 mins followed by addition of substrate measured after 60 mins by fluorescence assay; design: species or system dengue virus type 1
dengue virus type 3 [7] = assay: Antiviral activity against Dengue virus 3 P12-08 infected in african green monkey Vero cells assessed as reduction in virus replication after 72 hrs by foci-forming assay; format: functional, organism-based; details: P12-08, Vero
dengue virus type 4 [8] = assay: Antiviral activity against Dengue virus 4 P11-08 infected in african green monkey Vero cells assessed as reduction in virus replication after 72 hrs by foci-forming assay; format: functional, organism-based; details: P11-08, Vero
[9] = Cytotoxicity against african green monkey Vero cells after 72 hrs by MTT assay; format: cell-based; details: chlorocebus sabaeus
dengue virus type 2 [10] = assay: Antiviral activity against Dengue virus 2 NGC infected in african green monkey Vero cells assessed as reduction in virus replication after 72 hrs by foci-forming assay; format: functional, organism-based
dengue virus type 1 [11] = assay: Antiviral activity against Dengue virus 1 P03-08 infected in african green monkey Vero cells assessed as reduction in virus replication after 72 hrs by foci-forming assay; format: functional, organism-based; details: P03-08, Vero
[12] = Cytotoxicity against BHK21 cells assessed as cell viability after 48 hrs by Celltiter-Glo luminescent assay; format: cell-based, Mesocricetus auratus, BHK-21; details: hamster
[13] = target: Genome polyprotein (dengue virus type 2) (UniProt P29990); assay: Inhibition of the Dengue virus 2 NS2B-NS3 protease using Bz-nKRR-AMC as substrate at 300 uM preincubated for 15 mins followed by substrate addition measured after 30 mins by fluorescence assay
[14] = Cytotoxicity against human HuH7 cells assessed as cell viability after 48 hrs by Celltiter-Glo luminescent assay; format: cell-based, Huh-7
dengue virus type 2 [15] = assay: Antiviral activity against Dengue virus 2 infected in human HuH7 cells after 48 hrs by CFI assay; format: functional, organism-based; details: Huh-7, 48 h
dengue virus type 2 [16] = assay: Antiviral activity against Dengue virus 2 NGC infected in BHK21 cells assessed as reduction in viral titer after 48 hrs by plaque assay; format: functional, organism-based; details: BHK-21, 48 h
dengue virus type 3 [17] = assay: Antiviral activity against Dengue virus 3 H87 infected in BHK21 cells assessed as reduction in viral titer after 48 hrs by plaque assay; format: functional, organism-based; details: H87, BHK-21, 48 h
dengue virus type 1 [18] = assay: Antiviral activity against Dengue virus 1 West Pacific infected in BHK21 cells assessed as reduction in viral titer after 48 hrs by plaque assay; format: functional, organism-based; details: BHK-21, 48 h
dengue virus type 4 [19] = assay: Antiviral activity against Dengue virus 4 H241 infected in BHK21 cells assessed as reduction in viral titer after 48 hrs by plaque assay; format: functional, organism-based; details: H241, BHK-21, 48 h
dengue virus type 2 [20] = assay: Antiviral activity against Dengue virus 2 NGC infected in human A549 cells assessed as reduction in viral envelope protein production after 48 hrs by CFI assay; format: functional, organism-based; details: A549, 48 h
Genome polyprotein [21] = target: T1, Genome polyprotein; assay: Inhibition of Dengue virus 2 Taiwanese PL046 NS2B-NS3 protease using Ac-TTSTRR-pNA as substrate preincubated for 10 mins followed by addition of substrate measured after 2 hrs
[22] = Cytotoxicity against BHK21 cells assessed as cell viability after 24 hrs by ATP-Lite assay; format: cell-based, Mesocricetus auratus, BHK-21; details: hamster
dengue virus type 2 [23] = assay: Antiviral activity against Dengue virus 2 NGC infected in BHK21 cells assessed as reduction in virus replication after 24 hrs by renilla luciferase reporter gene assay; format: functional, organism-based; details: BHK-21, 24 h
Genome polyprotein [24] = target: T1, Genome polyprotein; assay: Inhibition of the Dengue virus 2 NS2B-NS3 protease expressed in Escherichia coli BL21(DE3)-RIPL cells using Pyr-RTKR-AMC as substrate preincubated for 30 mins followed by addition of substrate

SMILES: CC(=O)O[C@H]1[C@H]2c3cc4c(cc3CN3CCC(=C[C@@H]1O)[C@H]23)OCO4
- pEC50 (dengue virus type 2 [1]): 6.40
- selectivity ratio [2]: > 750

SMILES: NC(=O)[C@H](Cc1c[nH]c2ccccc12)NC(=O)[C@H](CS)NC(=O)[C@H](Cc1ccc(O)cc1)NC(=O)[C@@H](N)Cc1c[nH]c2ccccc12 (H-WYCW-NH2)
- pKi (Genome polyprotein [3]): 4.61
- pKi [4]: 4.95
- pKi (Genome polyprotein [5]): 5.32
- pKi (Genome polyprotein [6]): 5.38

SMILES: Cc1ccc(S(=O)(=O)Nc2cc(SCC(=O)O)c(O)c3ccccc23)cc1[N+](=O)[O-]
- pEC50 (dengue virus type 3 [7]): 5.61
- pEC50 (dengue virus type 4 [8]): 6.13
- CC50 at 72 h [9]: 67.3 µM
- pEC50 (dengue virus type 2 [10]): 6.01
- pEC50 (dengue virus type 1 [11]): 6.01

SMILES: Cc1cc(N2CCN(C)CC2)ccc1NC(=O)c1c2c(nc3ccccc13)CCN(Cc1ccccc1)C2
- CC50 at 48 h [12]: > 300 µM
- inhibition [13]: 85%
- CC50 at 48 h [14]: 55 µM
- pEC50 (dengue virus type 2 [15]): 5.30

SMILES: COc1ccc(-c2csc(NC(=O)c3cc(C(C)(C)C)cc(C(C)(C)C)c3)n2)cc1
- pEC50 (dengue virus type 2 [16]): 5.80
- pEC50 (dengue virus type 3 [17]): 5.39 to 6.00
- pEC50 (dengue virus type 1 [18]): 5.39 to 6.00
- pEC50 (dengue virus type 4 [19]): 5.39 to 6.00
- pEC50 (dengue virus type 2 [20]): 6.00

SMILES: CCCCCCCCCCCCCCCC[N+](CC)(CO)CO
- pIC50 (Genome polyprotein [21]): 4.65

SMILES: Nc1cc(N)c(/N=N/c2ccc(S(=O)(=O)Nc3nccs3)cc2)cc1/N=N/c1ccc(S(=O)(=O)Nc2nccs2)cc1
- CC50 at 24 h [22]: 213 µM
- pEC50 (dengue virus type 2 [23]): 4.40
- pIC50 (Genome polyprotein [24]): 5.56
